Experimental data: patent US20100267555A1, “Fungicidal mixtures II” (BASF SE, priority 2007, published 2010)
Like-named read-outs stand apart in the source and are kept apart here.

What was measured:
Assay type in all cases: cell-based
Phytophthora infestans = conditions: single active compound, 7 days after inoculation
Pyricularia oryzae = assay: microbe, parasite or virus in culture; conditions: 7 days after inoculation; for inhibition of growth at 4 ppm: read-out: Observed efficacy, single active compound, 4 ppm; for Observed efficacy: single active compound; for inhibition of growth at 0.063 ppm: read-out: Observed efficacy, single active compound, 0.063 ppm; for inhibition of growth at 16 ppm: read-out: Observed efficacy, single active compound, 16 ppm
Septoria tritici = assay: Activity against leaf blotch on wheat caused by Septoria tritici in the microtiter test (Septtr); conditions: single active compound, day 7 after inoculation

Compound `O=C(OCc1cccc(C(F)(F)F)c1)[C@H](c1cccs1)[C@@H](O)c1cccnc1` [I.59-RR, 3-trifluoromethylphenylmethyl 3-hydroxy-2-(2-thienyl)-3-(3-pyridyl)propanoate] has an Observed efficacy (Phytophthora infestans; 4 ppm) of 7%, an inhibition of growth at 4 ppm (Pyricularia oryzae; Pyricularia oryzae, 168 h) of 0% and an Observed efficacy (Pyricularia oryzae; 16 ppm) of 8%.
`COC(=O)Nc1nc2ccccc2[nH]1` [Carbendazim, methyl (1H-benzoimidazol-2-yl)-carbamate, reference compound] was tested, and the inhibition of growth at 0.25 ppm (Pyricularia oryzae; Pyricularia oryzae, 168 h, read-out: Observed efficacy, single active compound, 0.25 ppm) was 19%.
`O=C(OCc1cccc(C(F)(F)F)c1)[C@H](c1cccs1)[C@@H](O)c1cccnc1` (stereo in doubt) [I.59-RS, 3-trifluoromethylphenylmethyl 3-hydroxy-2-(2-thienyl)-3-(3-pyridyl)propanoate] was tested, and the Observed efficacy (Phytophthora infestans; 4 ppm) was 11%, the inhibition of growth at 0.063 ppm (Pyricularia oryzae; Pyricularia oryzae, 168 h) was 1% and the inhibition of growth at 16 ppm (Pyricularia oryzae; Pyricularia oryzae, 168 h) was 14%. The Observed efficacy (Pyricularia oryzae; 4 ppm) was 0% and the Observed efficacy (Septoria tritici; 4 ppm) was 14%.
Work on `N#Cc1c(Cl)c(Cl)c(Cl)c(C#N)c1Cl` [Chlorothalonil, 2,4,5,6-tetrachloroisophthalonitrile, reference compound] yielded an Observed efficacy (Phytophthora infestans; 0.25 ppm) of 16%.
`OC(Cc1ccccc1Cl)(Cn1nc[nH]c1=S)C1(Cl)CC1` (stereo not shown) [Prothioconazol, 2-[2-(1-chlorocyclopropyl)-3-(2-chlorophenyl)-2-hydroxypropyl]-2,4-dihydro-[1,2,4]triazole-3-thione, reference compound] showed an inhibition of growth at 4 ppm (Pyricularia oryzae; Pyricularia oryzae, 168 h) of 15%.
For `O=C(OCc1cccc(C(F)(F)F)c1)[C@H](c1ccc(F)cc1F)[C@@H](O)c1cccnc1` [I.57-RR, 3-trifluoromethylphenylmethyl 3-hydroxy-2-(2,4-difluorophenyl)-3-(3-pyridyl)propanoate], the Observed efficacy (Phytophthora infestans; 0.016 ppm) was 0% and the Observed efficacy (Septoria tritici; 0.063 ppm) was 4%.
`Cc1cc(C2CC2)nc(Nc2ccccc2)n1` [Cyprodinil, (4-cyclopropyl-6-methylpyrimidin-2-yl)phenylamine, reference compound] gave an inhibition of growth at 4 ppm (Pyricularia oryzae; Pyricularia oryzae, 168 h) of 71%.
Work on `Cc1ccc(C(C)NC(=O)[C@@H](NC(=O)OC(C)C)C(C)C)cc1` (stereo partly drawn) [Iprovalicarb, isopropyl [(1S)-2-methyl-1-(1-p-tolylethylcarbamoyl)propyl]carbamate, reference compound] yielded an Observed efficacy (Phytophthora infestans; 0.25 ppm) of 9%.
`Fc1ccc([C@]2(Cn3cncn3)O[C@H]2c2ccccc2Cl)cc1` (racemic) [Epoxiconazole, (2RS,3SR)-1-[3-(2-chlorophenyl)-2,3-epoxy-2-(4-fluorophenyl)propyl]-1H-1,2,4-triazole, reference compound] showed an Observed efficacy (Septoria tritici; 0.063 ppm) of 50%.
`Cc1ccc(-c2c(Cl)nc(C#N)n2S(=O)(=O)N(C)C)cc1` [Cyazofamid, 4-chloro-2-cyano-N,N-dimethyl-5-(4-methylphenyl)-1H-imidazole-1-sulfonamide, reference compound] showed an Observed efficacy (Phytophthora infestans; 0.016 ppm) of 56%.
Compound `CC(C)NC(=O)N1CC(=O)N(c2cc(Cl)cc(Cl)c2)C1=O` [Iprodione, N-isopropyl-3-(3,5-dichlorophenyl)-2,4-dioxoimidazolidine-1-carboxamide, reference compound] has an inhibition of growth at 4 ppm (Pyricularia oryzae; Pyricularia oryzae, 168 h) of 18%.
Compound `CO/N=C(/C1=NOCCO1)c1ccccc1Oc1ncnc(Oc2ccccc2Cl)c1F` [Fluoxastrobin, (E)-{2-[6-(2-chlorophenoxy)-5-fluoropyrimidin-4-yloxy]phenyl}(5,6-dihydro-1,4,2-dioxazin-3-yl)methanone O-methyloxime, reference compound] has an inhibition of growth at 0.063 ppm (Pyricularia oryzae; Pyricularia oryzae, 168 h) of 57% and an Observed efficacy (Septoria tritici; 0.25 ppm) of 58%.
With `O=C(OCc1cccc(C(F)(F)F)c1)[C@H](c1ccc(F)cc1F)[C@@H](O)c1cccnc1` (stereo in doubt) [I.57-RS, 3-trifluoromethylphenylmethyl 3-hydroxy-2-(2,4-difluorophenyl)-3-(3-pyridyl)propanoate] the Observed efficacy (Phytophthora infestans; 4 ppm) was 3%, the inhibition of growth at 4 ppm (Pyricularia oryzae; Pyricularia oryzae, 168 h) was 0% and the inhibition of growth at 16 ppm (Pyricularia oryzae; Pyricularia oryzae, 168 h) was 9%. For the same compound, the Observed efficacy (Septoria tritici; 4 ppm) was 26%.
`COC=C(C(=O)OC)c1ccccc1COc1cccc(C(F)(F)F)n1` [Picoxystrobin, methyl 3-methoxy-2-[2-(6-trifluoromethylpyridin-2-yloxymethyl)phenyl]acrylate, reference compound] was tested, and the inhibition of growth at 0.063 ppm (Pyricularia oryzae; Pyricularia oryzae, 168 h) was 49%.
